Consider seven molecules from PubChem BioAssay (NCI).

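All cell lines were grown in 96-well plates and treated with compound for 48 hours. The concentration for full growth arrest is given as TGI.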

Among the test systems are HOP-62 NSCLC; HL-60(TB) leukemia; UACC-257 melanoma; MDA-MB-231 breast; MALME-3M melanoma; HT29 colon; RPMI-8226 leukemia; SF-539 CNS; 786-0 renal; U251 CNS; HCT-116 colon; A549 NSCLC; OVCAR-4 ovarian; SK-OV-3 ovarian; EKVX NSCLC; HCC-2998 colon; SNB-75 CNS; COLO 205 colon; DU-145 prostate; UO-31 renal.
Holding throughout (experiment): DTP human tumour cell line panel, 48 h

As usually defined, the TGI is the concentration giving total growth inhibition. The low end stands for more potent growth arrest, the high end for less potent growth arrest.

For `Nc1ccc2nc3c(nc2c1)C(=O)c1ccccc1-3`, the TGI in the experiment on HOP-62 NSCLC, in the experiment with HL-60(TB) leukemia, in the experiment with UACC-257 melanoma, in the experiment on MDA-MB-231 breast, with MALME-3M melanoma and in the experiment with HT29 colon was above 100 µM each time. For the same molecule, the TGI with RPMI-8226 leukemia, in the experiment with SF-539 CNS, in the experiment with 786-0 renal, in the experiment with U251 CNS, in the experiment with HCT-116 colon and in the experiment with A549 NSCLC was above 100 µM throughout. The TGI in the experiment with OVCAR-4 ovarian, with SK-OV-3 ovarian, in the experiment on EKVX NSCLC, in the experiment on HCC-2998 colon, in the experiment on SNB-75 CNS and with COLO 205 colon was above 100 µM each time. The molecule also showed a total growth inhibition concentration (TGI) with DU-145 prostate above 100 µM.

Regarding `CCOC(=O)CCC(NC(=O)Cc1ccc(Nc2nc3ccccc3nc2-c2cccs2)cc1)C(=O)OCC` (centres undefined), the concentration for total growth inhibition (TGI) in the experiment on HOP-62 NSCLC, in the experiment with HL-60(TB) leukemia, with UACC-257 melanoma, with MDA-MB-231 breast, in the experiment with MALME-3M melanoma and in the experiment on HT29 colon was above 100 µM each time. The TGI with RPMI-8226 leukemia, in the experiment on SF-539 CNS, in the experiment with 786-0 renal, in the experiment on U251 CNS, in the experiment on HCT-116 colon and in the experiment with A549 NSCLC was above 100 µM in each case. The TGI with OVCAR-4 ovarian, with SK-OV-3 ovarian, in the experiment on EKVX NSCLC, with UO-31 renal, in the experiment on HCC-2998 colon and with SNB-75 CNS was above 100 µM in each case. Further, the total growth inhibition concentration (TGI) in the experiment on COLO 205 colon and in the experiment with DU-145 prostate was above 100 µM each time.

For `O=C1c2cccnc2S(=O)(=O)N1c1ccc(Oc2ccccc2)cc1`, the TGI with HOP-62 NSCLC, in the experiment on HL-60(TB) leukemia, in the experiment on UACC-257 melanoma, with MDA-MB-231 breast, in the experiment with MALME-3M melanoma and in the experiment with HT29 colon was above 100 µM in each case. Further, the total growth inhibition concentration (TGI) in the experiment with RPMI-8226 leukemia, in the experiment on SF-539 CNS, in the experiment on 786-0 renal, with U251 CNS, in the experiment with HCT-116 colon and in the experiment on A549 NSCLC was above 100 µM each time. In addition, the TGI in the experiment on OVCAR-4 ovarian, with SK-OV-3 ovarian, with EKVX NSCLC, in the experiment with UO-31 renal, with HCC-2998 colon and in the experiment with SNB-75 CNS was above 100 µM each time. Also, the TGI in the experiment on COLO 205 colon and in the experiment on DU-145 prostate was above 100 µM each time.

For `CCCCc1ccc(Nc2nc(Cl)c3ncn(COCCOC(C)=O)c3n2)cc1`, the total growth inhibition concentration (TGI) in the experiment with HOP-62 NSCLC was 30.8 µM; in the experiment with HL-60(TB) leukemia, 45.6 µM; in the experiment with UACC-257 melanoma it was 36.4 µM; with MDA-MB-231 breast it was 30.6 µM; in the experiment with MALME-3M melanoma, 31.7 µM; in the experiment on HT29 colon, 32.2 µM. The TGI in the experiment with RPMI-8226 leukemia was 55.4 µM; in the experiment on SF-539 CNS, 63.3 µM; with 786-0 renal, 29.5 µM; in the experiment with U251 CNS, 35 µM; in the experiment with HCT-116 colon it was 31.7 µM; with A549 NSCLC it was 51.2 µM. For the same molecule, the TGI in the experiment with OVCAR-4 ovarian was above 100 µM; in the experiment on SK-OV-3 ovarian, 76.9 µM; in the experiment with EKVX NSCLC, 20.3 µM; in the experiment with UO-31 renal it was 29.7 µM; with HCC-2998 colon, 24.5 µM; in the experiment on SNB-75 CNS it was 44.3 µM. Further, the TGI is 48.5 µM in the experiment with COLO 205 colon and 29.7 µM with DU-145 prostate.

Consider `CN(C)CCNc1nc2ccccc2c2c1CCCC2`, for which the TGI in the experiment on HOP-62 NSCLC was determined as 35.8 µM; in the experiment with HL-60(TB) leukemia, 32.3 µM; in the experiment with UACC-257 melanoma it was 29.3 µM; with MDA-MB-231 breast it was 33.6 µM; in the experiment with MALME-3M melanoma, 30.1 µM; in the experiment with HT29 colon, 95.1 µM. In addition, the TGI was 46.7 µM with RPMI-8226 leukemia; above 100 µM with SF-539 CNS; 34.2 µM in the experiment on 786-0 renal; 37 µM with U251 CNS; 30.2 µM in the experiment on HCT-116 colon; above 100 µM with A549 NSCLC. In addition, the TGI is above 100 µM with OVCAR-4 ovarian; 42.9 µM with SK-OV-3 ovarian; above 100 µM in the experiment with EKVX NSCLC; 27.5 µM in the experiment on UO-31 renal; 25.6 µM with HCC-2998 colon; 56.3 µM in the experiment on SNB-75 CNS. Also, the TGI in the experiment with COLO 205 colon and in the experiment on DU-145 prostate was above 100 µM each time.

With `C=CCc1[nH]c2c(OCc3ccccc3)cc(N(CC=C)C(C)=O)cc2c1C`, the total growth inhibition concentration (TGI) with HOP-62 NSCLC came to 36.7 µM; with HL-60(TB) leukemia, 39.9 µM; with UACC-257 melanoma it was 30.6 µM; with MDA-MB-231 breast it was 23.2 µM; with MALME-3M melanoma it was 30.4 µM; in the experiment with HT29 colon, 20.5 µM. Besides, the TGI with RPMI-8226 leukemia is 67.6 µM; in the experiment on SF-539 CNS, 32 µM; in the experiment with 786-0 renal, 28 µM; with U251 CNS, 25.3 µM; in the experiment on HCT-116 colon it was 24.8 µM; with A549 NSCLC, 26.2 µM. The TGI in the experiment with OVCAR-4 ovarian is 23.6 µM; in the experiment on SK-OV-3 ovarian, 31.9 µM; with EKVX NSCLC, 21 µM; with UO-31 renal, 21.3 µM; in the experiment with HCC-2998 colon, 28.4 µM; with SNB-75 CNS, 23.4 µM. Moreover, the values for the TGI in the experiment with COLO 205 colon and with DU-145 prostate were 30.1 µM and 27.8 µM, respectively.

As to `COC(=O)CCC(C)[C@H]1CCC2C3C(C[C@H](OC(C)=O)[C@@]21C)[C@@]1(C)CCC2(C[C@H]1C[C@H]3OC(C)=O)OOC1(CCCC1)OO2` (some centres undefined), the TGI is 29.9 µM in the experiment on HOP-62 NSCLC; 54.3 µM in the experiment with HL-60(TB) leukemia; above 100 µM in the experiment with UACC-257 melanoma; above 100 µM in the experiment with MDA-MB-231 breast; above 100 µM with MALME-3M melanoma; above 100 µM in the experiment with HT29 colon. Moreover, the TGI was 9.44 µM with RPMI-8226 leukemia; above 100 µM with SF-539 CNS; above 100 µM in the experiment on 786-0 renal; above 100 µM in the experiment with U251 CNS; above 100 µM in the experiment with HCT-116 colon; above 100 µM in the experiment on A549 NSCLC. Further, the TGI with OVCAR-4 ovarian is 87.6 µM; with SK-OV-3 ovarian, above 100 µM; in the experiment with EKVX NSCLC, 56.4 µM; in the experiment on UO-31 renal, 27.8 µM; in the experiment on HCC-2998 colon, above 100 µM; with SNB-75 CNS, above 100 µM. For the same molecule, the total growth inhibition concentration (TGI) in the experiment with COLO 205 colon and in the experiment with DU-145 prostate was above 100 µM throughout.
